From PubChem BioAssay AID192 (DTP/NCI, 2004)
Values joined by “and” are separate entries in the source; they are usually repeats but may differ in a detail not shown here. Equal entries are not always repeated. Inconclusive results and toxic doses are left out.

System: BDF1 mice, B16 melanoma ip, median survival T/C
Experiment: NCI In Vivo Anticancer Drug Screen. Data for tumor model B16 Melanoma (intraperitoneal) in B6D2F1 (BDF1) mice
Details: endpoint: median survival time, higher = longer survival
Summary of the method: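 Survival or tumor size is measured after treatment of tumor-bearing mice and normalised to the vehicle-treated control group.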

[1] = dose: 0.78 mg/kg/injection, schedule: Q01DX009 (ip), vehicle: saline
[2] = dose: 1.56 mg/kg/injection, schedule: Q01DX009 (ip), vehicle: saline
[3] = dose: 2.34 mg/kg/injection, schedule: Q04DX003 (ip), vehicle: saline
[4] = dose: 3.12 mg/kg/injection, schedule: Q01DX009 (ip), vehicle: saline
[5] = dose: 50.0 mg/kg/injection, schedule: Q01DX009 (ip), vehicle: saline with Tween-80
[6] = dose: 100.0 mg/kg/injection, schedule: Q01DX009 (ip), vehicle: saline with Tween-80
[7] = dose: 200.0 mg/kg/injection, schedule: Q01DX009 (ip), vehicle: saline with Tween-80
[8] = dose: 400.0 mg/kg/injection, schedule: Q01DX009 (ip), vehicle: saline with Tween-80
[9] = dose: 12.5 mg/kg/injection, schedule: Q01DX009 (ip), vehicle: saline
[10] = dose: 50.0 mg/kg/injection, schedule: Q01DX009 (ip), vehicle: Klucel (hydroxypropylcellulose) (HPC)
[11] = dose: 100.0 mg/kg/injection, schedule: Q01DX009 (ip), vehicle: Klucel (hydroxypropylcellulose) (HPC)
[12] = dose: 25.0 mg/kg/injection, schedule: Q01DX009 (ip), vehicle: Klucel (hydroxypropylcellulose) (HPC)
[13] = dose: 25.0 mg/kg/injection, schedule: Q01DX009 (ip), vehicle: saline
[14] = dose: 50.0 mg/kg/injection, schedule: Q01DX009 (ip), vehicle: saline
[15] = dose: 200.0 mg/kg/injection, schedule: Q01DX009 (ip), vehicle: Klucel (hydroxypropylcellulose) (HPC)

CCCCOCCN1CCN(CCCN2c3ccccc3Sc3ccc(C(F)(F)F)cc32)CC1
T/C (dose: 0.29 mg/kg/injection, schedule: Q04DX003 (ip), vehicle: saline): 89 % of control | T/C (dose: 0.58 mg/kg/injection, schedule: Q04DX003 (ip), vehicle: saline): 102 % of control | T/C [1]: 112 % of control | T/C (dose: 1.17 mg/kg/injection, schedule: Q04DX003 (ip), vehicle: saline): 107 % of control | T/C [2]: 115 % of control | T/C [3]: 89 % of control | T/C [4]: 107 % of control

CC(C)(C)OC(=O)NC(CCC(N)=O)C(=O)ON1C(=O)CCC1=O (stereo not drawn)
T/C [5]: 100 % of control | T/C [6]: 93 % of control | T/C [7]: 97 % of control | T/C [8]: 86 % of control

CC(CN1CCN(C)CC1)CN1c2ccccc2Sc2ccc(C(F)(F)F)cc21 (stereo not drawn)
T/C [2]: 110 % of control | T/C [4]: 110 % of control | T/C (dose: 6.25 mg/kg/injection, schedule: Q01DX009 (ip), vehicle: saline): 123 % of control | T/C [9]: 107 % of control

CN(C)CCN(Cc1ccccc1)c1ccccc1
T/C (dose: 25.0 mg/kg/injection, schedule: Q04DX003 (ip), vehicle: Klucel (hydroxypropylcellulose) (HPC)): 95 % of control | T/C (dose: 50.0 mg/kg/injection, schedule: Q04DX003 (ip), vehicle: Klucel (hydroxypropylcellulose) (HPC)): 89 % of control

Cc1cc(Cl)ccc1NS(=O)(=O)c1cccc([N+](=O)[O-])c1
T/C [6]: 116 % of control | T/C [7]: 121 % of control | T/C [8]: 107 % of control

Cc1cccc(C(N)=S)n1
T/C [10]: 110 % of control | T/C [11]: 100 % of control

OC(CCN1CCCCC1)(c1ccccc1)C1CCCC1 (stereo not drawn)
T/C (dose: 12.5 mg/kg/injection, schedule: Q01DX009 (ip), vehicle: Klucel (hydroxypropylcellulose) (HPC)): 100 % of control | T/C [12]: 94 % of control | T/C [10]: 100 % of control

CC(Br)C(=O)NCC(=O)O (stereo not drawn)
T/C [9]: 101 % of control | T/C [13]: 90 % of control | T/C [5]: 95 % of control | T/C [14]: 101 % of control

NC(=O)c1ncn(C2OC(CO)C(O)C2O)c1O (stereo not drawn)
T/C [12]: 104 % of control | T/C [10]: 114 % of control | T/C [11]: 109 % of control | T/C [15]: 111 % of control

FC(F)(F)c1ccc2c(c1)N(CCCN1CCN(CCOCCCl)CC1)c1ccccc1S2
T/C (dose: 0.39 mg/kg/injection, schedule: Q01DX009 (ip), vehicle: saline): 123 % of control | T/C [1]: 115 % of control | T/C [2]: 110 % of control | T/C [3]: 92 % of control | T/C (dose: 4.68 mg/kg/injection, schedule: Q04DX003 (ip), vehicle: saline): 86 % of control

COc1cccc2c1C(=O)c1c(O)c3c(c(O)c1C2=O)C[C@@](O)(C(=O)COC(=O)CCCCC(=O)O)C[C@@H]3OC1CC(NC(=O)C(F)(F)F)C(O)C(C)O1 (stereo partly drawn)
T/C (dose: 18.75 mg/kg/injection, schedule: Q01DX001 (ip), vehicle: other): 175 % of control | T/C (dose: 37.5 mg/kg/injection, schedule: Q01DX001 (ip), vehicle: other): 168 % of control and 205 % of control | T/C (dose: 75.0 mg/kg/injection, schedule: Q01DX001 (ip), vehicle: other): 205 % of control and 271 % of control | T/C (dose: 150.0 mg/kg/injection, schedule: Q01DX001 (ip), vehicle: other): 150 % of control

CNCC(O)c1cccc(O)c1 (stereo not drawn)
T/C [2]: 111 % of control | T/C [4]: 117 % of control | T/C [9]: 108 % of control | T/C [13]: 105 % of control | T/C [14]: 95 % of control

CCOc1ccc(C2NC(=O)c3ccccc3N2)cc1 (stereo not drawn)
T/C [11]: 105 % of control | T/C [15]: 98 % of control | T/C (dose: 400.0 mg/kg/injection, schedule: Q01DX009 (ip), vehicle: Klucel (hydroxypropylcellulose) (HPC)): 94 % of control

CC(CP(=O)(c1ccccc1)c1ccccc1)C(=O)O (stereo not drawn)
T/C [6]: 95 % of control | T/C [7]: 97 % of control | T/C [8]: 90 % of control

O=S(O)OS(=O)O
T/C (dose: 50.0 mg/kg/injection, schedule: Q04DX003 (ip), vehicle: saline): 101 % of control | T/C (dose: 100.0 mg/kg/injection, schedule: Q04DX003 (ip), vehicle: saline): 101 % of control | T/C (dose: 200.0 mg/kg/injection, schedule: Q04DX003 (ip), vehicle: saline): 94 % of control

Cc1c(Cl)cccc1NC(=O)Nc1ccccc1Cl
T/C (dose: 75.0 mg/kg/injection, schedule: Q01DX009 (ip), vehicle: Klucel (hydroxypropylcellulose) (HPC)): 106 % of control | T/C (dose: 150.0 mg/kg/injection, schedule: Q01DX009 (ip), vehicle: Klucel (hydroxypropylcellulose) (HPC)): 95 % of control
